Measured values taken from patent US4820695A, “C-20-dihydro-deoxy-(cyclic amino)-derivatives of macrolide antibiotics” (priority 1987, dated 1989).
Converted amounts (≈) assume the structure as drawn. Where two headings read alike, the source gives them in different places.

Columns and labels:
[1] = test system: Streptococcus Group D X66; test: MIC, standard agar-dilution assay (Table IX); format: cell-based; settings: read-out: MIC
Pasteurella multocida = test: Pasteurella infection in one-day-old chicks, subcutaneous administration (Table XII); format: in vivo; settings: Administered subcutaneously, 30 mg/kg × 2, 1 and 4 hours post-challenge
Experimental: Many of the C-20 modified derivatives of this invention have also shown in vivo antibacterial activity against infections induced by gram-negative bacteria. Tables XII and XIII summarize the results of tests in which illustrative compounds were evaluated against a Pasteurella infection in one-day-old chicks. The compounds were administered parenterally or orally after challenge of the chicks with Pasteurella multocida (0.1 ml of a 10^-4 dilution of a twenty-hour tryptose broth culture of an avian P. multocida given subcutaneously). In these tests, unless indicated otherwise, all non-medicated infected chicks died within 24 hours of Pasteurella challenge. In the tests summarized in Table XII, the compounds were administered by subcutaneous injection at a dosage of 30 mg/kg, 1 and 4 hours post-challenge of the chicks with P. multocida. In the tests summarized in Table XIII the compounds were administered in medicated drinking water (at a level of 2 g/gal) available from 4 to 20 hours prior to challenge of the chicks with P. multocida and during the 3 -day test period.
^a Administered subcutaneously; 30 mg/kg × 2

[2] = test system: Streptococcus pyogenes C203; test: MIC, standard agar-dilution assay (Table IX); format: cell-based; settings: read-out: MIC
[3] = test system: Staphylococcus aureus S13E; test: MIC, standard agar-dilution assay (Table IX); format: cell-based; settings: Staphylococcus aureus, S13E
[4] = test system: Streptococcus pyogenes C203; test: ED50 in mice experimentally infected with S. pyogenes C203 (Table XI); format: in vivo; settings: Streptococcus pyogenes, doses given 1 and 4 hours postinfection, read-out: ED50
Experimental: The C-20 modified derivatives of this invention have shown in vivo antimicrobial activity against experimentally-induced infections in laboratory animals. When two doses of test compound were administered to mice experimentally infected with S. pyogenes C203, the activity observed was measured as an ED50 value [effective dose in mg/kg to protect 50% of the test animals: see Warren Wick, et al., J. Bacteriol. 81, 233-235 (1961)].
^a mg/kg × 2; doses given 1 and 4 hours postinfection

[5] = test system: Mycoplasma hyopneumoniae S5972; test: MIC, broth-dilution microtiter test (Table X); format: cell-based; settings: Mesomycoplasma hyopneumoniae, read-out: MIC
Source text: (§1) The MIC's in Table X were obtained using conventional broth-dilution microtiter tests.

[6] = test system: Pasteurella multocida 60A; test: MIC, broth-dilution microtiter test (Table X); format: cell-based; settings: Avian isolate, read-out: MIC
Source text: as §1

Mycoplasma hyorhinis 29E = test: MIC, broth-dilution microtiter test (Table X); format: cell-based; settings: read-out: MIC
Source text: as §1

Staphylococcus aureus = test: MIC, broth-dilution microtiter test (Table X); format: cell-based; settings: read-out: MIC
Source text: as §1

Mycoplasma synoviae 40A = test: MIC, broth-dilution microtiter test (Table X); format: cell-based; settings: Mycoplasmopsis synoviae, read-out: MIC
Source text: as §1

[7] = test system: Pasteurella hemolytica 22C; test: MIC, broth-dilution microtiter test (Table X); format: cell-based; settings: read-out: MIC
Source text: as §1

[8] = test system: Pasteurella multocida 17E; test: MIC, broth-dilution microtiter test (Table X); format: cell-based; settings: Bovine isolate, read-out: MIC
Source text: as §1

[9] = test system: Mycoplasma gallisepticum 29C; test: MIC, broth-dilution microtiter test (Table X); format: cell-based; settings: Mycoplasmoides gallisepticum, read-out: MIC
Source text: as §1

Streptococcus sp. 19F = test: MIC, broth-dilution microtiter test (Table X); format: cell-based; settings: read-out: MIC
Source text: as §1

Klebsiella X26 = test: MIC, standard agar-dilution assay (Table IX); format: cell-based; settings: read-out: MIC
[10] = test system: Staphylococcus aureus X400; test: MIC, standard agar-dilution assay (Table IX); format: cell-based; settings: Staphylococcus aureus X400, Methicillin-resistant strain, read-out: MIC
[11] = test system: Staphylococcus epidermidis EPI1; test: MIC, standard agar-dilution assay (Table IX); format: cell-based; settings: Staphylococcus epidermidis EPI1; agar-dilution; read-out: MIC
[12] = test system: Staphylococcus aureus V41; test: MIC, standard agar-dilution assay (Table IX); format: cell-based; settings: Staphylococcus aureus V41, Penicillin-resistant strain, read-out: MIC
Escherichia coli N10 = test: MIC, standard agar-dilution assay (Table IX); format: cell-based; settings: read-out: MIC
[13] = test system: Haemophilus influenzae C.L.; test: MIC, standard agar-dilution assay (Table IX); format: cell-based; settings: Ampicillin-sensitive strain, read-out: MIC
Escherichia coli TEM = test: MIC, standard agar-dilution assay (Table IX); format: cell-based; settings: read-out: MIC
[14] = test system: Streptococcus Group D 2041; test: MIC, standard agar-dilution assay (Table IX); format: cell-based; settings: GROUPD2041, read-out: MIC
Staphyloccus aureus X1.1 = test: MIC, standard agar-dilution assay (Table IX); format: cell-based, Staphylococcus aureus; settings: Staphylococcus aureus, read-out: MIC
Escherichia coli EC14 = test: MIC, standard agar-dilution assay (Table IX); format: cell-based; settings: read-out: MIC
[15] = test system: Staphylococcus epidermidis 222; test: MIC, standard agar-dilution assay (Table IX); format: cell-based; settings: read-out: MIC
[16] = test system: Haemophilus influenzae 76; test: MIC, standard agar-dilution assay (Table IX); format: cell-based; settings: Haemophilus influenzae 76, Ampicillin-resistant strain, read-out: MIC
[17] = test system: Streptococcus pneumoniae Park I; test: MIC, standard agar-dilution assay (Table IX); format: cell-based; settings: Streptococcus pneumoniae Park I; agar-dilution; read-out: MIC
[18] = Titratable groups in 66% aqueous DMF (Tables XIV-XVI); format: physicochemical
Source text: ^c Run in 66% aqueous DMF
^d Run in 66% aqueous DMF

CCC1OC(=O)CC(O)C(C)C(OC2OC(C)C(O)C(N(C)C)C2O)C(CCN2CCC(Cc3ccccc3)CC2)CC(C)C(=O)C=CC(C)=CC1COC1OC(C)C(O)C(OC)C1OC (stereo not drawn) [Compound D27, 20-DH-DO-20-(4-benzyl-piperidin-1-yl)desmycosin]
MIC [1]: 2 µg/mL (≈ 2.15 µM)
Number of Deaths/Number Treated (Pasteurella multocida): 8/10
MIC [2]: 0.25 µg/mL (≈ 0.268 µM)
MIC [3]: 1 µg/mL (≈ 1.07 µM)
ED50 ([4]; C203, Oral): 16.5 mg/kg
ED50 ([4]; C203, sc, Subcutaneous): 3.81 mg/kg
MIC [5]: 0.39 µg/mL (≈ 0.419 µM)
MIC [6]: 12.5 µg/mL (≈ 13.4 µM)
MIC (Mycoplasma hyorhinis 29E): 25 µg/mL (≈ 26.8 µM)
MIC (Staphylococcus aureus): 3.12 µg/mL (≈ 3.35 µM)
MIC (Mycoplasma synoviae 40A): ≤ 0.048 µg/mL
MIC [7]: 12.5 µg/mL (≈ 13.4 µM)
MIC [8]: 6.25 µg/mL (≈ 6.71 µM)
MIC [9]: ≤ 0.048 µg/mL
MIC (Streptococcus sp. 19F): 0.78 µg/mL (≈ 0.838 µM)
MIC (Klebsiella X26): 64 µg/mL (≈ 68.7 µM)
MIC [10]: 1 µg/mL (≈ 1.07 µM)
MIC [11]: 1 µg/mL (≈ 1.07 µM)
MIC [12]: 1 µg/mL (≈ 1.07 µM)
MIC (Escherichia coli N10): 128 µg/mL (≈ 137 µM)
MIC [13]: 32 µg/mL (≈ 34.4 µM)
MIC (Escherichia coli TEM): 32 µg/mL (≈ 34.4 µM)
MIC [14]: 4 µg/mL (≈ 4.3 µM)
MIC (Staphyloccus aureus X1.1): 1 µg/mL (≈ 1.07 µM)
MIC (Escherichia coli EC14): 128 µg/mL (≈ 137 µM)
MIC [15]: 0.25 µg/mL (≈ 0.268 µM)
MIC [16]: 16 µg/mL (≈ 17.2 µM)
MIC [17]: 0.5 µg/mL (≈ 0.537 µM)

CCC1OC(=O)CC(O)C(C)C(OC2OC(C)C(OC3CC(C)(O)C(O)C(C)O3)C(N(C)C)C2O)C(CCN2CCCCCC2)CC(C)C(=O)C=CC(C)=CC1COC1OC(C)C(O)C(O)C1OC (stereo not drawn) [Compound M3, 20-DH-DO-20-(hexahydroazepin-1-yl)macrocin]
MIC [1]: > 128 µg/mL
pKa ([18]; 66% aqueous DMF, read-out: Titratable groups): 9.4
pKa ([18]; 66% aqueous DMF, read-out: Titratable groups (first value)): 6.91
MIC [2]: 4 µg/mL (≈ 4.06 µM)
MIC [3]: 8 µg/mL (≈ 8.12 µM)
ED50 ([4]; C203, Oral): > 100 mg/kg
ED50 ([4]; C203, sc, Subcutaneous): > 10 mg/kg
MIC [5]: 12.5 µg/mL (≈ 12.7 µM)
MIC [6]: > 50 µg/mL
MIC (Mycoplasma hyorhinis 29E): > 50 µg/mL
MIC (Staphylococcus aureus): 12.5 µg/mL (≈ 12.7 µM)
MIC (Mycoplasma synoviae 40A): 25 µg/mL (≈ 25.4 µM)
MIC [7]: 50 µg/mL (≈ 50.7 µM)
MIC [8]: > 50 µg/mL
MIC [9]: 6.25 µg/mL (≈ 6.34 µM)
MIC (Streptococcus sp. 19F): 50 µg/mL (≈ 50.7 µM)
MIC (Klebsiella X26): > 128 µg/mL
MIC [10]: 32 µg/mL (≈ 32.5 µM)
MIC [11]: 8 µg/mL (≈ 8.12 µM)
MIC [12]: 8 µg/mL (≈ 8.12 µM)
MIC (Escherichia coli N10): > 128 µg/mL
MIC [13]: 128 µg/mL (≈ 130 µM)
MIC (Escherichia coli TEM): > 128 µg/mL
MIC [14]: > 128 µg/mL
MIC (Staphyloccus aureus X1.1): 4 µg/mL (≈ 4.06 µM)
MIC (Escherichia coli EC14): > 128 µg/mL
MIC [15]: 2 µg/mL (≈ 2.03 µM)
MIC [16]: 128 µg/mL (≈ 130 µM)
MIC [17]: 2 µg/mL (≈ 2.03 µM)

CCC1OC(=O)CC(O)C(C)C(OC2OC(C)C(O)C(N(C)C)C2O)C(CCN2CCCCCC2)CC(C)C(=O)C=CC(C)=CC1COC1OC(C)C(O)C(O)C1OC (stereo not drawn) [Compound L4, 20-DH-DO-20-(hexahydroazepin-1-yl)lactenocin]
MIC [1]: 32 µg/mL (≈ 38 µM)
pKa ([18]; Titratable groups): 9.7
pKa ([18]; Titratable groups (first value)): 8
MIC [2]: 1 µg/mL (≈ 1.19 µM)
MIC [3]: 2 µg/mL (≈ 2.38 µM)
MIC [5]: 1.56 µg/mL (≈ 1.85 µM)
MIC [6]: 12.5 µg/mL (≈ 14.9 µM)
MIC (Mycoplasma hyorhinis 29E): 50 µg/mL (≈ 59.4 µM)
MIC (Staphylococcus aureus): 6.25 µg/mL (≈ 7.43 µM)
MIC (Mycoplasma synoviae 40A): 1.56 µg/mL (≈ 1.85 µM)
MIC [7]: 25 µg/mL (≈ 29.7 µM)
MIC [8]: 12.5 µg/mL (≈ 14.9 µM)
MIC [9]: 12.5 µg/mL (≈ 14.9 µM)
MIC (Streptococcus sp. 19F): 6.25 µg/mL (≈ 7.43 µM)
MIC (Klebsiella X26): 16 µg/mL (≈ 19 µM)
MIC [10]: 2 µg/mL (≈ 2.38 µM)
MIC [11]: 2 µg/mL (≈ 2.38 µM)
MIC [12]: 2 µg/mL (≈ 2.38 µM)
MIC (Escherichia coli N10): > 128 µg/mL
MIC [13]: 16 µg/mL (≈ 19 µM)
MIC (Escherichia coli TEM): > 128 µg/mL
MIC [14]: 16 µg/mL (≈ 19 µM)
MIC (Staphyloccus aureus X1.1): 2 µg/mL (≈ 2.38 µM)
MIC (Escherichia coli EC14): > 128 µg/mL
MIC [15]: 1 µg/mL (≈ 1.19 µM)
MIC [16]: 16 µg/mL (≈ 19 µM)
MIC [17]: 8 µg/mL (≈ 9.51 µM)
